Assays:
T47D cells = test: Cellular growth inhibition assay for T47D cells, CellTiter-Glo; format: cell-based, human; conditions: 72 hours treatment, CellTiter-Glo 2.0 cell viability
Method in brief: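 Luminescence from CellTiter-Glo 2.0 after 72 h of compound exposure gives the viability signal. Cells grew in insulin-supplemented (0.2 units/mL) DMEM with 10% FBS and were treated one day after seeding at 0.5% DMSO. GI50 values come from four-parameter nonlinear regression.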

[1] = tested on: T-Rex 293 cell line SC3 cells lacking increased expression of androgen receptor protein; test: Cellular growth inhibition, T-Rex 293 SC3 cells without doxycycline, CellTiter-Glo; format: cell-based; conditions: T-Rex 293 SC3 cells not exposed to doxycycline, CellTiter-Glo 2.0
Method in brief: (§1)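 Growth inhibition was compared in a T-Rex 293 clone with and without doxycycline (10 ng/mL)-driven androgen receptor overexpression. Compounds were applied for 72 h in hormone-depleted serum, and GI50 came from four-parameter curves of CellTiter-Glo signal.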

VCaP cells = test: Cellular growth inhibition assay for VCaP cells, CellTiter-Glo; format: cell-based, human; conditions: 72 hours treatment, CellTiter-Glo 2.0
Method in brief: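 GI50 values come from four-parameter curve fits of luminescence data normalized to a zero baseline. Compound, in medium with 0.5% DMSO, was added one day after plating and left for 72 h before CellTiter-Glo 2.0 addition.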

[2] = tested on: T-Rex 293 cell line SC3 cells having increased expression of androgen receptor protein due to exposure to doxycycline; test: Cellular growth inhibition, T-Rex 293 SC3 cells with doxycycline (androgen receptor induced), CellTiter-Glo; format: cell-based; conditions: T-Rex 293 SC3 cells with 10 ng/mL doxycycline (increased androgen receptor expression)
Method in brief: as §1

| SMILES | GI50 (T47D cells; Homo sapiens, T47D, 72 h) [nM] | GI50 (VCaP cells; Homo sapiens, VCaP, 72 h) [nM] | GI50 (T47D cells) [nM] | GI50 (VCaP cells) [nM] | GI50 ([1]; 72 h) [nM] | GI50 ([2]; 72 h) [nM] | GI50 ([1]; 72 hours) [nM] | GI50 ([2]; 72 hours) [nM] |
| --- | --- | --- | --- | --- | --- | --- | --- | --- |
| Cc1sc2c(c1C)C(c1ccc(OC3CC4(C3)CC3(CCN(c5ncc(C(=O)N[C@H]6C(C)(C)[C@H](Oc7ccc(C#N)c(Cl)c7)C6(C)C)cn5)CC3)C4)cc1)=N[C@@H](C)c1nnc(C)n1-2 [Compound I-411] | 500 to 1500 | < 500 | – | – | > 3000 | < 500 | – | – |
| Cc1sc2c(c1C)C(c1ccc(OC3CC4(C3)CC3(CCN(c5cnc(C(=O)N[C@H]6C(C)(C)[C@H](Oc7ccc(C#N)c(Cl)c7)C6(C)C)cn5)CC3)C4)cc1)=N[C@@H](C)c1nnc(C)n1-2 [Compound I-412] | < 500 | > 3000 | – | – | > 3000 | > 3000 | – | – |
| Cc1sc2c(c1C)C(c1ccc([C@H]3C[C@@H]([C@@H]4CCN(c5ncc(C(=O)N[C@H]6C(C)(C)[C@H](Oc7ccc(C#N)c(Cl)c7)C6(C)C)cn5)C4)C3)cc1)=N[C@@H](Cc1ncco1)c1nnc(C)n1-2 [Compound I-413] | > 3000 | > 3000 | – | – | > 3000 | > 3000 | – | – |
| Cc1sc2c(c1C)C(c1ccc([C@H]3C[C@H]([C@@H]4CCN(c5ncc(C(=O)N[C@H]6C(C)(C)[C@H](Oc7ccc(C#N)c(Cl)c7)C6(C)C)cn5)C4)C3)cc1)=N[C@@H](Cc1ncco1)c1nnc(C)n1-2 [Compound I-414] | > 3000 | > 3000 | – | – | > 3000 | > 3000 | – | – |
| Cc1sc2c(c1C)C(c1ccc([C@H]3C[C@@H]([C@H]4CCN(c5ncc(C(=O)N[C@H]6C(C)(C)[C@H](Oc7ccc(C#N)c(Cl)c7)C6(C)C)cn5)C4)C3)cc1)=N[C@@H](Cc1ncco1)c1nnc(C)n1-2 [Compound I-415] | > 3000 | > 3000 | – | – | > 3000 | > 3000 | – | – |
| Cc1sc2c(c1C)C(c1ccc([C@H]3C[C@H]([C@H]4CCN(c5ncc(C(=O)N[C@H]6C(C)(C)[C@H](Oc7ccc(C#N)c(Cl)c7)C6(C)C)cn5)C4)C3)cc1)=N[C@@H](Cc1ncco1)c1nnc(C)n1-2 [Compound I-416] | < 500 | < 500 | – | – | > 3000 | < 500 | – | – |
| Cc1sc2c(c1C)C(c1ccc([C@H]3C[C@@H]([C@H]4CCN(c5ncc(C(=O)N[C@H]6C(C)(C)[C@H](Oc7ccc(C#N)c(Cl)c7)C6(C)C)cn5)C4)C3)cc1)=N[C@H](Cc1ncco1)c1nnc(C)n1-2 [Compound I-417] | < 500 | < 500 | – | – | < 500 | < 500 | – | – |
| Cc1sc2c(c1C)C(c1ccc([C@H]3C[C@H]([C@H]4CCN(c5ncc(C(=O)N[C@H]6C(C)(C)[C@H](Oc7ccc(C#N)c(Cl)c7)C6(C)C)cn5)C4)C3)cc1)=N[C@H](Cc1ncco1)c1nnc(C)n1-2 [Compound I-418] | < 500 | < 500 | – | – | < 500 | < 500 | – | – |
| Cc1sc2c(c1C)C(c1ccc([C@H]3C[C@@H]([C@@H]4CCCN(c5ncc(C(=O)N[C@H]6C(C)(C)[C@H](Oc7ccc(C#N)c(Cl)c7)C6(C)C)cn5)C4)C3)cc1)=N[C@@H](Cc1ncco1)c1nnc(C)n1-2 [Compound I-419] | > 3000 | > 3000 | – | – | > 3000 | > 3000 | – | – |
| Cc1sc2c(c1C)C(c1ccc([C@H]3C[C@H]([C@H]4CCCN(c5ncc(C(=O)N[C@H]6C(C)(C)[C@H](Oc7ccc(C#N)c(Cl)c7)C6(C)C)cn5)C4)C3)cc1)=N[C@@H](Cc1ncco1)c1nnc(C)n1-2 [Compound I-420] | > 3000 | > 3000 | – | – | > 3000 | > 3000 | – | – |
| Cc1sc2c(c1C)C(c1ccc([C@H]3C[C@@H]([C@H]4CCCN(c5ncc(C(=O)N[C@H]6C(C)(C)[C@H](Oc7ccc(C#N)c(Cl)c7)C6(C)C)cn5)C4)C3)cc1)=N[C@@H](Cc1ncco1)c1nnc(C)n1-2 [Compound I-421] | < 500 | < 500 | – | – | > 3000 | < 500 | – | – |

Now from value to molecule, other results behind:

| GI50 (T47D cells; Homo sapiens, T47D, 72 h) [nM] | GI50 (VCaP cells; Homo sapiens, VCaP, 72 h) [nM] | GI50 (T47D cells) [nM] | GI50 (VCaP cells) [nM] | SMILES | GI50 ([1]; 72 h) [nM] | GI50 ([2]; 72 h) [nM] | GI50 ([1]; 72 hours) [nM] | GI50 ([2]; 72 hours) [nM] |
| --- | --- | --- | --- | --- | --- | --- | --- | --- |
| < 500 | < 500 | – | – | Cc1sc2c(c1C)C(c1ccc([C@H]3C[C@H]([C@@H]4CCCN(c5ncc(C(=O)N[C@H]6C(C)(C)[C@H](Oc7ccc(C#N)c(Cl)c7)C6(C)C)cn5)C4)C3)cc1)=N[C@@H](Cc1ncco1)c1nnc(C)n1-2 [Compound I-422] | > 3000 | < 500 | – | – |
| – | – | 500 to 1500 | < 500 | Cc1sc2c(c1C)C(c1ccc([C@H]3C[C@H]([C@@H]4CCCN(c5ncc(C(=O)N[C@H]6C(C)(C)[C@H](Oc7ccc(C#N)c(Cl)c7)C6(C)C)cn5)C4)C3)cc1)=N[C@@H](Cc1ncco1)c1nnc(C)n1-2 [Compound I-423] | – | – | > 3000 | < 500 |
| < 500 | < 500 | – | – | Cc1sc2c(c1C)C(c1ccc(CCN3CC[C@]4(C3)CN(c3ncc(C(=O)N[C@H]5C(C)(C)[C@H](Oc6ccc(C#N)c(Cl)c6)C5(C)C)cn3)CC(F)(F)C4)cc1)=N[C@@H](Cc1ncco1)c1nnc(C)n1-2 [Compound I-424] | > 3000 | < 500 | – | – |
| < 500 | < 500 | – | – | Cc1sc2c(c1C)C(c1ccc(CCN3CC[C@@]4(C3)CN(c3ncc(C(=O)N[C@H]5C(C)(C)[C@H](Oc6ccc(C#N)c(Cl)c6)C5(C)C)cn3)CC(F)(F)C4)cc1)=N[C@@H](Cc1ncco1)c1nnc(C)n1-2 [Compound I-425] | > 3000 | < 500 | – | – |
| < 500 | < 500 | – | – | Cc1sc2c(c1C)C(c1ccc(C[C@H]3C[C@@H](OC4CCN(c5ncc(C(=O)N[C@H]6C(C)(C)[C@H](Oc7ccc(C#N)c(Cl)c7)C6(C)C)cn5)CC4)C3)cc1)=N[C@@H](Cc1ncco1)c1nnc(C)n1-2 [Compound I-426] | > 3000 | < 500 | – | – |
| – | – | < 500 | < 500 | Cc1sc2c(c1C)C(c1ccc(C[C@H]3C[C@@H](OC4CCN(c5ncc(C(=O)N[C@H]6C(C)(C)[C@H](Oc7ccc(C#N)c(Cl)c7)C6(C)C)cn5)CC4)C3)cc1)=N[C@@H](Cc1ncco1)c1nnc(C)n1-2 [Compound I-427] | – | – | > 3000 | < 500 |
| > 3000 | > 3000 | – | – | Cc1sc2c(c1C)C(c1ccc([C@H]3CC[C@@]4(C3)CN(c3ncc(C(=O)N[C@H]5C(C)(C)[C@H](Oc6ccc(C#N)c(Cl)c6)C5(C)C)cn3)CCO4)cc1)=N[C@@H](Cc1ncco1)c1nnc(C)n1-2 [Compound I-428] | > 3000 | < 500 | – | – |
| < 500 | < 500 | – | – | Cc1sc2c(c1C)C(c1ccc(CC(C)(C)N3CC4(CCCN(c5ncc(C(=O)N[C@H]6C(C)(C)[C@H](Oc7ccc(C#N)c(Cl)c7)C6(C)C)cn5)C4)C3)cc1)=N[C@@H](Cc1ncco1)c1nnc(C)n1-2 [Compound I-429] | 1500 to 3000 | < 500 | – | – |
| < 500 | < 500 | – | – | Cc1sc2c(c1C)C(c1ccc(-n3ncc(C4CCN(c5ncc(C(=O)N[C@H]6C(C)(C)[C@H](Oc7ccc(C#N)c(Cl)c7)C6(C)C)cn5)CC4)n3)cc1)=N[C@@H](Cc1ncco1)c1nnc(C)n1-2 [Compound I-430] | < 500 | < 500 | – | – |
| > 3000 | < 500 | – | – | Cc1sc2c(c1C)C(c1ccc(-c3csnc3OC3CCN(c4ncc(C(=O)N[C@H]5C(C)(C)[C@H](Oc6ccc(C#N)c(Cl)c6)C5(C)C)cn4)CC3)cc1)=N[C@@H](Cc1ncco1)c1nnc(C)n1-2 [Compound I-431] | > 3000 | < 500 | – | – |
| > 3000 | < 500 | – | – | Cc1sc2c(c1C)C(c1ccc(-c3conc3OC3CCN(c4ncc(C(=O)N[C@H]5C(C)(C)[C@H](Oc6ccc(C#N)c(Cl)c6)C5(C)C)cn4)CC3)cc1)=N[C@@H](Cc1ncco1)c1nnc(C)n1-2 [Compound I-432] | > 3000 | < 500 | – | – |
| 500 to 1500 | < 500 | – | – | [2H]C([2H])(c1ccc(C2=N[C@@H](Cc3ncco3)c3nnc(C)n3-c3sc(C)c(C)c32)cc1)N1CC[C@@]2(CCCN(c3ncc(C(=O)N[C@H]4C(C)(C)[C@H](Oc5ccc(C#N)c(Cl)c5)C4(C)C)cn3)C2)C1 [Compound I-433] | < 500 | < 500 | – | – |
| < 500 | < 500 | – | – | [2H]C([2H])(c1ccc(C2=N[C@@H](Cc3ncco3)c3nnc(C)n3-c3sc(C)c(C)c32)cc1)N1CC[C@]2(CCCN(c3ncc(C(=O)N[C@H]4C(C)(C)[C@H](Oc5ccc(C#N)c(Cl)c5)C4(C)C)cn3)C2)C1 [Compound I-434] | > 3000 | < 500 | – | – |
| < 500 | > 3000 | – | – | Cc1sc2c(c1C)C(c1ccc(N3CCC(C4CCN(c5cnc(C(=O)N[C@H]6C(C)(C)[C@H](Oc7ccc(C#N)c(Cl)c7)C6(C)C)cn5)CC4)CC3)cc1)=N[C@@H](C)c1nnc(C)n1-2 [Compound I-437] | > 3000 | < 500 | – | – |
| – | – | > 3000 | 500 to 1500 | Cc1sc2c(c1C)C(c1ccc(C(C)(C)N3CC4(CCN(c5ncc(C(=O)N[C@H]6C(C)(C)[C@H](Oc7ccc(C#N)c(Cl)c7)C6(C)C)cn5)CC4)C3)cc1)=N[C@@H](Cc1ncco1)c1nnc(C)n1-2 [Compound I-438] | 1500 to 3000 | – | – | < 500 |
